Source: patent US10131652B2, “Pyrimidinyloxy benzene derivatives as herbicides” (E. I. DU PONT DE NEMOURS AND COMPANY, priority 2014, dated 2018)

How the values were obtained:
Type in all cases: in vivo
[1] = tested on: Italian ryegrass (Lolium multiflorum); assay: Test B pre-/postemergence plant response
Outline: (§1)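 Evaluation is visual, about 10 days after application, rating injury from 0 (none) to 100 (complete control) relative to untreated controls. Application was a preemergence soil spray on seeded pots or a postemergence spray on one- to two-leaf plants.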

[2] = tested on: barnyardgrass (Echinochloa crus-galli); assay: Test B pre-/postemergence plant response
Outline: as §1

corn (Zea mays) = assay: Test B pre-/postemergence plant response
Outline: as §1

[3] = tested on: giant foxtail (Setaria faberii); assay: Test B pre-/postemergence plant response
Outline: as §1

kochia (Kochia scoparia) = assay: Test B pre-/postemergence plant response
Outline: as §1

[4] = tested on: pigweed (Amaranthus retroflexus); assay: Test B pre-/postemergence plant response
Outline: as §1

[5] = tested on: ragweed (common ragweed, Ambrosia elatior); assay: Test B pre-/postemergence plant response
Outline: as §1

[6] = tested on: wheat (Triticum aestivum); assay: Test B pre-/postemergence plant response
Outline: as §1

[7] = tested on: blackgrass (Alopecurus myosuroides); assay: Test B postemergence plant response
Outline: (§2)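 Values are visual control ratings (0 to 100) recorded approximately 10 days after postemergence application to greenhouse-grown plants of 2 to 10 cm, one- to two-leaf stage, each judged against untreated controls.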

[8] = tested on: galium (catchweed bedstraw, Galium aparine); assay: Test B postemergence plant response
Outline: as §2

[9] = tested on: barnyardgrass (Echinochloa crus-galli); assay: Test C flooded paddy test plant response; details: Flood, 250 g ai/ha; scale of 0 to 100 where 0 is no effect and 100 is complete control; 13 to 15 days
Outline: (§3)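 Greenhouse paddy assay, 13–15 days. Treatment into 3 cm floodwater over 2-leaf plants; visual 0–100 rating against controls.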

[10] = tested on: ducksalad (Heteranthera limosa); assay: Test C flooded paddy test plant response; details: Flood, 250 g ai/ha; scale of 0 to 100 where 0 is no effect and 100 is complete control; 13 to 15 days
Outline: as §3

rice (Oryza sativa) = assay: Test C flooded paddy test plant response; details: Flood, 250 g ai/ha; scale of 0 to 100 where 0 is no effect and 100 is complete control; 13 to 15 days
Outline: as §3

[11] = tested on: small-flower umbrella sedge (Cyperus difformis); assay: Test C flooded paddy test plant response; details: Flood, 250 g ai/ha; scale of 0 to 100 where 0 is no effect and 100 is complete control; 13 to 15 days
Outline: as §3

[12] = Postemergence, 1000 g ai/ha, 0 to 100 scale (0 no effect, 100 complete control)
[13] = Preemergence, 1000 g ai/ha, 0 to 100 scale (0 no effect, 100 complete control)
[14] = 31 g ai/ha, Preemergence, 0 to 100 scale where 0 is no effect and 100 is complete control
[15] = 125 g ai/ha, postemergence, 0 to 100 scale, 0 no effect, 100 complete control
[16] = Postemergence, 31 g ai/ha, 0 to 100 scale (0 no effect, 100 complete control)
[17] = Preemergence, 125 g ai/ha, 0 to 100 scale (0 no effect, 100 complete control)

Which results are given for `Clc1cnc(Oc2ccccc2-c2ccc(Cl)nn2)nc1` [Compound 186]?
Plant response rating, Ryegrass, Italian [1, 12]: 0; Plant response rating, Ryegrass, Italian [1, 13]: 0; Plant response rating, Barnyardgrass [2, 12]: 0; Plant response rating, Barnyardgrass [2, 13]: 20; Plant response rating, Corn (corn (Zea mays); [12]): 0; Plant response rating, Foxtail, Giant [3, 12]: 30; Plant response rating, Foxtail, Giant [3, 13]: 100; Plant response rating, Kochia (kochia (Kochia scoparia); [12]): 30; Plant response rating, Kochia (kochia (Kochia scoparia); [13]): 100; Plant response rating, Pigweed [4, 12]: 20; Plant response rating, Pigweed [4, 13]: 100; Plant response rating, Ragweed [5, 12]: 50; Plant response rating, Ragweed [5, 13]: 70; Plant response rating, Wheat [6, 12]: 0; Plant response rating, Blackgrass [7, 12]: 20; Plant response rating, Galium [8, 12]: 20; Barnyardgrass plant response rating [9]: 0; Ducksalad plant response rating [10]: 0; Rice plant response rating (rice (Oryza sativa)): 0; Sedge, Umbrella plant response rating [11]: 0

How did the “Plant response rating, Ryegrass, Italian” value [1, 14] turn out when `Cc1ccnc(-c2ccccc2Oc2ncc(Cl)cn2)c1` [Compound 187] was run?
Its value is 0.

What about the “Plant response rating, Ryegrass, Italian” value [1, 15] of the same molecule?
The value was 0.

What about the “Plant response rating, Ryegrass, Italian” value [1, 16] of the same molecule?
The value was 0.

And the “Ryegrass, Italian plant response rating” value [1, 17]?
The value was 0.

And the “Plant response rating, Barnyardgrass” value [2, 14]?
Its value is 0.

And the “Plant response rating, Barnyardgrass” value [2, 15]?
The value was 0.

And the “Plant response rating, Barnyardgrass” value [2, 16]?
The value was 0.

What about the “Barnyardgrass plant response rating” value [2, 17] of the same molecule?
The value was 0.

And the “Plant response rating, Corn” value (corn (Zea mays); [15])?
The value was 0.

What about the “Plant response rating, Corn” value (corn (Zea mays); [16]) of the same molecule?
Its value is 0.

And the “Plant response rating, Foxtail, Giant” value [3, 14]?
The value was 0.

And the “Plant response rating, Foxtail, Giant” value [3, 15]?
Its value is 0.

And the “Plant response rating, Foxtail, Giant” value [3, 16]?
Its value is 0.

And the “Foxtail, Giant plant response rating” value [3, 17]?
Its value is 0.

And the “Plant response rating, Kochia” value (kochia (Kochia scoparia); [14])?
The value was 0.

What about the “Plant response rating, Kochia” value (kochia (Kochia scoparia); [15]) of the same molecule?
The value was 0.

And the “Plant response rating, Kochia” value (kochia (Kochia scoparia); [16])?
Its value is 0.

What about the “Kochia plant response rating” value (kochia (Kochia scoparia); [17]) of the same molecule?
The value was 0.

And the “Plant response rating, Pigweed” value [4, 14]?
Its value is 0.

What about the “Plant response rating, Pigweed” value [4, 15] of the same molecule?
The value was 0.

And the “Plant response rating, Pigweed” value [4, 16]?
The value was 0.

And the “Pigweed plant response rating” value [4, 17]?
Its value is 0.

What about the “Plant response rating, Ragweed” value [5, 14] of the same molecule?
The value was 0.

And the “Plant response rating, Ragweed” value [5, 15]?
Its value is 0.

What about the “Plant response rating, Ragweed” value [5, 16] of the same molecule?
The value was 0.

What about the “Ragweed plant response rating” value [5, 17] of the same molecule?
Its value is 0.

And the “Plant response rating, Wheat” value [6, 15]?
Its value is 0.

What about the “Plant response rating, Wheat” value [6, 16] of the same molecule?
Its value is 0.

And the “Plant response rating, Blackgrass” value [7, 15]?
Its value is 0.

And the “Plant response rating, Blackgrass” value [7, 16]?
Its value is 0.

And the “Plant response rating, Galium” value [8, 15]?
The value was 0.

And the “Plant response rating, Galium” value [8, 16]?
The value was 0.

And the “Barnyardgrass plant response rating” value [9]?
The value was 0.

What about the “Ducksalad plant response rating” value [10] of the same molecule?
Its value is 50.

What about the “Rice plant response rating” value (rice (Oryza sativa)) of the same molecule?
The value was 0.

What about the “Sedge, Umbrella plant response rating” value [11] of the same molecule?
The value was 0.

With `N#Cc1ccnc(-c2ccccc2Oc2ncc(Cl)cn2)c1` [Compound 188] as the molecule, how does the “Plant response rating, Ryegrass, Italian” value [1, 14] read?
The value was 0.

And the “Plant response rating, Ryegrass, Italian” value [1, 15]?
The value was 0.

And the “Plant response rating, Ryegrass, Italian” value [1, 16]?
The value was 0.

And the “Ryegrass, Italian plant response rating” value [1, 17]?
Its value is 0.

And the “Plant response rating, Barnyardgrass” value [2, 14]?
The value was 0.

What about the “Plant response rating, Barnyardgrass” value [2, 15] of the same molecule?
Its value is 20.

And the “Plant response rating, Barnyardgrass” value [2, 16]?
The value was 0.

What about the “Barnyardgrass plant response rating” value [2, 17] of the same molecule?
Its value is 20.

What about the “Plant response rating, Corn” value (corn (Zea mays); [15]) of the same molecule?
Its value is 30.

What about the “Plant response rating, Corn” value (corn (Zea mays); [16]) of the same molecule?
The value was 0.

What about the “Plant response rating, Foxtail, Giant” value [3, 14] of the same molecule?
The value was 0.

What about the “Plant response rating, Foxtail, Giant” value [3, 15] of the same molecule?
Its value is 20.

And the “Plant response rating, Foxtail, Giant” value [3, 16]?
Its value is 0.

What about the “Foxtail, Giant plant response rating” value [3, 17] of the same molecule?
Its value is 40.

And the “Plant response rating, Kochia” value (kochia (Kochia scoparia); [14])?
The value was 0.

And the “Plant response rating, Kochia” value (kochia (Kochia scoparia); [15])?
Its value is 90.

And the “Plant response rating, Kochia” value (kochia (Kochia scoparia); [16])?
The value was 0.

And the “Kochia plant response rating” value (kochia (Kochia scoparia); [17])?
Its value is 30.

And the “Plant response rating, Pigweed” value [4, 14]?
Its value is 0.

What about the “Plant response rating, Pigweed” value [4, 15] of the same molecule?
Its value is 60.

And the “Plant response rating, Pigweed” value [4, 16]?
Its value is 0.

And the “Pigweed plant response rating” value [4, 17]?
Its value is 100.

What about the “Plant response rating, Ragweed” value [5, 14] of the same molecule?
The value was 0.

And the “Plant response rating, Ragweed” value [5, 15]?
Its value is 20.

What about the “Plant response rating, Ragweed” value [5, 16] of the same molecule?
The value was 0.

What about the “Ragweed plant response rating” value [5, 17] of the same molecule?
The value was 0.

What about the “Plant response rating, Wheat” value [6, 15] of the same molecule?
The value was 20.

And the “Plant response rating, Wheat” value [6, 16]?
The value was 0.

What about the “Plant response rating, Blackgrass” value [7, 15] of the same molecule?
Its value is 20.

What about the “Plant response rating, Blackgrass” value [7, 16] of the same molecule?
The value was 0.

And the “Plant response rating, Galium” value [8, 15]?
The value was 50.

And the “Plant response rating, Galium” value [8, 16]?
Its value is 0.

What about the “Barnyardgrass plant response rating” value [9] of the same molecule?
The value was 0.

What about the “Ducksalad plant response rating” value [10] of the same molecule?
The value was 30.

What about the “Rice plant response rating” value (rice (Oryza sativa)) of the same molecule?
The value was 0.

What about the “Sedge, Umbrella plant response rating” value [11] of the same molecule?
The value was 0.
